Structures can show the parent of a compound that is named as a salt.

This data set in a line: HILIC, Merck SeQuant ZIC-HILIC, 25 °C, 0.25 mL/min; A: water + 16 mM ammonium formate; B: acetonitrile + 0.1% formic acid, pH 3; gradient (min/%B) 0/97 2/97 10/70 15/10 17/10 18/97 25/97. The following applies: stereoisomer not certain.
Turning to `OCC1OC(O)CC1O` (centres undefined), the LC retention time is 13 min. In the case of `CC(C)C(O)C(=O)O` (centres undefined), the LC retention time was 1.94 min.

As for `CC12CCC(O)CC1CCC1C2C(O)CC2(C)C1CCC2(O)C(=O)CO` (centres undefined), the LC retention time was found to be 1.91 min. As for `O=C(O)CCCCC1CCSS1` (racemic), the LC retention time stood at 1.66 min. Next, `CC(N)(Cc1cnc[nH]1)C(=O)O` (racemic) [Alpha-methyl-DL-histidine dihydrochloride]: 15.5 min; `CC(=O)NC(C(=O)O)C(C)C` (racemic) [N-acetyl-DL-valine]: 2.08 min. Take `O=C(O)CC(Cc1ccccc1)C(=O)O` (racemic) [dl-benzylsuccinic acid]: the LC retention time amounted to 2.15 min. With `Oc1cc(O)c2c(c1)OC(c1ccc(O)c(O)c1)C(O)C2` (single isomer, unassigned; (+)) [(+)-Catechin hydrate], the LC retention time worked out at 9.95 min. Next, `O=C(OC1Cc2c(O)cc(O)cc2OC1c1cc(O)c(O)c(O)c1)c1cc(O)c(O)c(O)c1` (single isomer, unassigned; (-)) [(-)-Epigallocatechin gallate]: 12.4 min; `CN1C2CC(OC(=O)C(CO)c3ccccc3)CC1C1OC12` (single isomer, unassigned; (-)) [(-)-Scopolamine hydrochloride]: 9.99 min; `CCCCCCCCC=CCCCCCCCC(=O)OCC(CO)OC(=O)CCCCCCCC=CCCCCCCCC` (centres undefined) [1-2-dioleoyl-sn-glycerol]: 1.49 min.

For `NCCCN` [1-3-DIAMINOPROPANE], the LC retention time worked out at 17.6 min. Next, `Cn1c(=O)c2[nH]c(=O)[nH]c2n(C)c1=O` [1-3-Dimethyluric acid]: 2.19 min. As to `OCC1OCC(O)C(O)C1O` [1-5-Anhydro-D-sorbitol], the LC retention time came to 10.1 min. On to `NC1(C(=O)O)CC1` [1-AMINOCYCLOPROPANECARBOXYLATE], for which the LC retention time came out at 13.5 min. On to `NC1(C(=O)O)CCCCC1` [1-Aminocyclohexanecarboxylic acid], for which the LC retention time was 11.7 min. Turning to `O=C(O)c1ccc2ccccc2c1[O-]` [1-HYDROXY-2-NAPHTHOATE], the LC retention time amounted to 1.77 min. For `Cn1cnc(C[C@H](N)C(=O)O)c1` [1-METHYL-L-HISTIDINE], the LC retention time worked out at 15.8 min.

`Cn1cnc2c(ncn2C2OC(CO)C(O)C2O)c1=N` (centres undefined) [1-METHYLADENOSINE]: the LC retention time was determined as 12.8 min. Consider `C[n+]1cccc(C(N)=O)c1` [1-METHYLNICOTINAMIDE], for which the LC retention time amounted to 12.8 min. Next, `Cn1c(=O)[nH]c2[nH]c(=O)[nH]c2c1=O` [1-Methyluric acid]: 9.44 min; `Cn1c(=O)[nH]c2nc[nH]c2c1=O` [1-Methylxanthine]: 2.14 min. For `CC(=O)c1ccc(O)cc1O` [2'-4'-DIHYDROXYACETOPHENONE], the LC retention time was determined as 1.72 min. `Nc1ncnc2c1ncn2C1CC(O)C(COP(=O)(O)OP(=O)(O)O)O1` (centres undefined) [2'-DEOXYADENOSINE 5'-DIPHOSPHATE]: the LC retention time stood at 14.6 min. Regarding `COC1C(O)C(CO)OC1n1cnc2c(=O)[nH]cnc21` (centres undefined) [2'-O-Methylinosine], the LC retention time amounted to 8.49 min. `CC(C)(CCC(=O)O)C(=O)O` [2-2-Dimethylglutaric acid]: the LC retention time was 2.1 min. Take `CC(C)(CC(=O)O)C(=O)O` [2-2-Dimethylsuccinic acid]: the LC retention time stood at 2.18 min. In the case of `NCC(N)C(=O)O` (centres undefined) [2-3-DIAMINOPROPIONATE], the LC retention time is 16.1 min. Next, `O=C(O)c1cccc(O)c1O` [2-3-DIHYDROXYBENZOATE]: 2.14 min; `O=C(O)C(COP(=O)(O)O)OP(=O)(O)O` [2-3-DIPHOSPHO-D-GLYCERIC ACID]: 15.7 min.

Regarding `O=C(O)c1ccc(O)cc1O` [2-4-Dihydroxybenzoic acid], the LC retention time was determined as 2.18 min. `O=C(O)c1cc(O)ccc1O` [2-5-DIHYDROXYBENZOATE]: the LC retention time came to 2.14 min. Consider `Cc1cnc(C)cn1` [2-5-DIMETHYLPYRAZINE], for which the LC retention time is 2.19 min. Under `O=C(O)c1c(O)cccc1O` [2-6-Dihydroxybenzoic acid] stands 2.07 min. In the case of `O=c1ccc2cc(O)ccc2[nH]1` [2-6-quinolinediol], the LC retention time stood at 2.16 min.

`CC(=O)N[C@@H]1[C@@H](O)[C@H](O)[C@@H](CO)O[C@H]1N` [2-ACETAMIDO-2-DEOXY-BETA-D-GLUCOSYLAMINE]: the LC retention time was determined as 14.5 min. Regarding `CC(C)(N)C(=O)O` [2-AMINOISOBUTYRATE], the LC retention time amounted to 13 min. With `Nc1ccccc1O` [2-AMINOPHENOL], the LC retention time turned out to be 2.11 min. Turning to `Nc1ncccc1C(=O)O` [2-Aminopyridine-3-carboxylic acid], the LC retention time is 8.8 min.

With `O=CC[C@@H](O)[C@H](O)[C@H](O)CO` [2-DEOXY-D-GLUCOSE], the LC retention time worked out at 10.2 min. As to `CSCCC(O)C(=O)O` (centres undefined) [2-HYDROXY-4-(METHYLTHIO)BUTANOATE], the LC retention time was 1.99 min. Turning to `CCC(O)C(=O)[O-]` (centres undefined) [2-HYDROXYBUTYRATE], the LC retention time worked out at 2.1 min. For `O=c1cccc[nH]1` [2-HYDROXYPYRIDINE], the LC retention time was found to be 2.15 min.

On to `OCc1ccccc1O` [2-Hydroxybenzyl alcohol ( Salicyl alcohol- Saligenin)], for which the LC retention time was 1.95 min. Regarding `CC(C)CC(O)C(=O)O` (centres undefined) [2-Hydroxyisocaproic acid], the LC retention time is 1.91 min.

As to `Cc1ccccc1C(=O)NCC(=O)O` [2-Methylhippuric acid (ortho-Methylhippuric acid)], the LC retention time turned out to be 1.97 min.

Regarding `NC(C(=O)O)c1ccccc1` (centres undefined) [2-Phenylglycine], the LC retention time amounted to 11.8 min. For the compound `O=C(O)c1ccc2ccccc2n1` [2-QUINOLINECARBOXYLATE], the LC retention time is 2.13 min. As for `CCCCC(O)C(=O)O` (centres undefined) [2-hydroxycaproic acid], the LC retention time is 1.87 min. Turning to `O=C(O)C(=O)CCc1ccccc1` [2-oxo-4-phenyl-butyric acid], the LC retention time came out at 2.06 min. On to `CC(C)(CC(=O)O)CC(=O)O` [3-3-Dimethylglutaric acid], for which the LC retention time is 2.11 min. `O=C(O)C(O)c1ccc(O)c(O)c1` (centres undefined) [3-4 DIHYDROXYMANDELATE]: the LC retention time was 10.3 min. For the compound `NC(Cc1ccc(O)c(O)c1)C(=O)O` [3-4-DIHYDROXY-L-PHENYLALANINE], the LC retention time stood at 13.4 min.

For `O=C(O)c1ccc(O)c(O)c1` [3-4-DIHYDROXYBENZOATE], the LC retention time was 2.14 min. Next, `O=C(O)Cc1ccc(O)c(O)c1` [3-4-DIHYDROXYPHENYLACETATE]: 5.6 min; `OCC(O)c1ccc(O)c(O)c1` (centres undefined) [3-4-DIHYDROXYPHENYLGLYCOL]: 8.79 min.

Turning to `O=S(=O)(O)c1ccc(O)c(O)c1` [3-4-dihydroxybenzenesulfonic acid], the LC retention time is 12.8 min. As to `NC(Cc1cc(I)c(Oc2ccc(O)cc2)c(I)c1)C(=O)O` [3-5-DIIODO-L-THYRONINE], the LC retention time amounted to 9.3 min. With `NC(Cc1cc(I)c(O)c(I)c1)C(=O)O` [3-5-DIIODO-L-TYROSINE], the LC retention time is 10.5 min.

Values taken from the RepoRT retention time repository.
